Data on four compounds can be found in patent publication US12391737B2, “Soluble NPY2 receptor agonists” (Boehringer Ingelheim International GmbH, priority 2020, dated 2025).

The target of data set [1] is T1, human NPY1 receptor (hY1R) (Homo sapiens, UniProt P25929).
T1 construct: expressed in transfected cells; host or cells: CHO-K1
T1 sequence (P25929 1-384): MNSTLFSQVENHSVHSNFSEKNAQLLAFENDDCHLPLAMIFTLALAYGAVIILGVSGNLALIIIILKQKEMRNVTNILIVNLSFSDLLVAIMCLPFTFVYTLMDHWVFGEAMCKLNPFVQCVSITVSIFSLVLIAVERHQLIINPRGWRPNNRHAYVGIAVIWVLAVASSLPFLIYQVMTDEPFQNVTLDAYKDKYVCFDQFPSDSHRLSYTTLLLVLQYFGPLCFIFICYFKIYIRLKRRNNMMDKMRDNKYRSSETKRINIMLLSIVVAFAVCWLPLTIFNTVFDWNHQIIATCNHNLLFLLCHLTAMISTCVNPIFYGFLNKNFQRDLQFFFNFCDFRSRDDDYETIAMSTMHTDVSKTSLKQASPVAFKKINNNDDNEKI
Kind of data set: HTRF cAMP Gi assay, hY1R. Particulars: CHO-K1 cells. It is filed as cell-based.

In data set [2] the target is T2, human NPY5 receptor (hY5R) (Homo sapiens, UniProt Q15761).
T2 sequence (Q15761 1-445): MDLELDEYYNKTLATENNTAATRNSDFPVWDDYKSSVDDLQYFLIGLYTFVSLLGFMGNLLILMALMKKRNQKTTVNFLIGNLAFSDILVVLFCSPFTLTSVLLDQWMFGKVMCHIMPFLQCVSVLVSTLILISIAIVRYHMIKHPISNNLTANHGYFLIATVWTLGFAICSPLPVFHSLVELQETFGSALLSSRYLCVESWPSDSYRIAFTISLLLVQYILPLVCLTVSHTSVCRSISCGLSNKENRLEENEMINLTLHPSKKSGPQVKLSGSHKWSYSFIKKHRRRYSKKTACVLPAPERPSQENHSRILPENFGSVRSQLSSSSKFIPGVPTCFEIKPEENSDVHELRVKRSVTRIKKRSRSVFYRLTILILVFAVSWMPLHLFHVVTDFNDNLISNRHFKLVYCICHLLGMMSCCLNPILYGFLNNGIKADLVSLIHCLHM
Kind of data set: HTRF cAMP Gi assay, hY5R. For orientation: In TR-FRET formats the signal depends on donor and acceptor labels being close together.
Method: (§1) Briefly, the production of intracellular cAMP will generate a competition between unlabeled cAMP and exogenously added d2-cAMP for anti-cAMP antibodies conjugated to cryptate. CHO-K1 cells stably expressing the human NPY1, NPY2, NPY4 and NPY5 receptors were used with the cells brought to life from a frozen stock immediately before assay performance. 2000 cells per well were applied for all four NPY receptor subtype assays. A 384-well format was used applying a total volume of 20 μl using 5 μl cells, 2.5 μl peptide agonist, 2.5 μl forskolin and 5 μl of each of the fluorophores. […] Concentration-response evaluation of compounds was performed with 11 concentrations of agonist peptides (covering 3 decades). EC50 values were calculated by nonlinear regression using sigmoid concentration-response with variable slope.

Data set [3] addresses T3, human NPY4 receptor (hY4R) (Homo sapiens, UniProt P50391).
T3 construct: expressed in transfected cells; host or cells: CHO-K1
Kind of data set: HTRF cAMP Gi assay, hY4R. It is filed as cell-based. Particulars: CHO-K1 cells.
Method: as §1

The nature of the next data set: Solubility determination. Particulars: for Sol6: pH 6; for Sol7: pH 7. The procedure, abridged:
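Solubility is derived from the ratio of reversed-phase peak areas, filtered sample over a control dissolved at 1 mg/ml in 50% acetonitrile. Peptides are agitated for 2 hours at room temperature in 0.1 M sodium diphosphate at pH 6.4 or 7.0, aiming at 10 mg/ml.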

For data set [4], the target named is T4, Human Neuropeptide Y2 Receptor (Homo sapiens, UniProt P49146).
T4 construct: purchased CHEMICON HTS066M
T4 sequence (P49146 1-381): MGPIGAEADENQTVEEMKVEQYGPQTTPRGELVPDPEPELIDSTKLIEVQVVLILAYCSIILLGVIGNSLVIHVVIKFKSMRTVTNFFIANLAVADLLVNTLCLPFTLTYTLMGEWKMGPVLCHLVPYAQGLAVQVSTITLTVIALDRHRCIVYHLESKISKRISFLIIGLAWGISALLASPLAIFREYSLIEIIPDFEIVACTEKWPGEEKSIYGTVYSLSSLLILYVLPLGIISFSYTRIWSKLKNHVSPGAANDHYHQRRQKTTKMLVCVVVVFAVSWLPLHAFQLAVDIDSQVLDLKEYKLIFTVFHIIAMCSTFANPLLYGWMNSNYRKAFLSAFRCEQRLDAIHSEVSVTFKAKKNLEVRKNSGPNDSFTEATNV
Kind of data set: Radioligand binding competition assay (RLB). The following applies: Table 3, 125I-PYY(1-36) competition; read-out: Ki. The procedure, abridged: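 Peptides were serially diluted from 1 mM DMSO stocks and competed for radioligand binding to receptor membranes (0.5 μg/well) over 2 h at room temperature, pH 7.4 HEPES buffer. Bound radioactivity on filters was counted by scintillation, and IC50 was derived by nonlinear regression.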

T3 sequence (P50391 whole entry): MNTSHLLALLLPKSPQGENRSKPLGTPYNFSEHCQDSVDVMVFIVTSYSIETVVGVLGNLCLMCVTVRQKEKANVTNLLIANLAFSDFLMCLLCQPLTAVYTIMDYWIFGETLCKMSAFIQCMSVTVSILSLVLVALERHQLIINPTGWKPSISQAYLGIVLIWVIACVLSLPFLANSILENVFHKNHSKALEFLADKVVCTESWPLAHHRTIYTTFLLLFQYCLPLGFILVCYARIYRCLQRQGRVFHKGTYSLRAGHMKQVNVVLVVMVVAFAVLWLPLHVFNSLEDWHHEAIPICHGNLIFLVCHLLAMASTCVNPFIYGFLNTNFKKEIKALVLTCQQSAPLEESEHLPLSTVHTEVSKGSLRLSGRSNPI

In general, EC50 refers to the concentration giving half of the maximal effect. Higher therefore signals a less potent agent. The Ki is the dissociation constant of the complex between target and ligand, obtained from inhibition or displacement. Regarding `CC[C@H](C)[C@H](NC(=O)[C@H](CCC(=O)O)NC(=O)[C@H](CCC(=O)O)NC(=O)[C@@H]1CCCN1C(=O)[C@@H](NC(=O)[C@H](C)NC(=O)[C@H](CC(=O)O)NC(=O)[C@H](CCC(=O)O)NC(=O)[C@H](CCC(=O)O)NC(=O)[C@@H]1CCCN1C(=O)[C@H](CCCCNC(=O)CCCCCNC(=O)CC[C@H](NC(=O)CCCCCCCCCCCCCCCCC(=O)O)C(=O)O)NC(=O)[C@H](C)NC(=O)[C@@H]1CCCN1C(=O)[C@H](C)NC(=O)CC(C)C)[C@@H](C)O)C(=O)N[C@@H](CCC(N)=O)C(=O)N[C@@H](CCCNC(=N)N)C(=O)N[C@@H](Cc1ccc(O)cc1)C(=O)N[C@@H](Cc1ccc(O)cc1)C(=O)N[C@H](C(=O)N[C@@H](CO)C(=O)N[C@@H](CC(C)C)C(=O)N[C@@H](CCCNC(=N)N)C(=O)N[C@@H](Cc1c[nH]cn1)C(=O)N[C@@H](Cc1ccc(O)cc1)C(=O)N[C@@H](Cc1ccc(O)cc1)C(=O)N[C@@H](CC(N)=O)C(=O)N[C@@H](Cc1c[nH]c2ccccc12)C(=O)N[C@@H](CC(C)C)C(=O)N[C@H](C(=O)N[C@@H](CCCNC(=N)N)C(=O)N[C@@H](CCC(N)=O)C(=O)N[C@@H](CCCNC(=N)N)C(=O)N[C@@H](Cc1ccc(O)cc1)C(N)=O)[C@@H](C)O)C(C)C` [Compound 114, N{alpha-4}-(3-methylbutanoyl)-N{epsilon-7}-(6-[(4S)-4-carboxy-4-(17-carboxyheptadecanamido)butanamido]hexanoyl)-[4A,6A,7K,9E,13T,17I,18Q,22V,28Y,30W,31L]-hPYY(4-36)], the EC50 in data set [1], in data set [2] and in data set [3] was more than 5 µM throughout. Further, the “Sol6” value in “Solubility determination” turned out to be 8.5 mg/mL. Besides, in “Solubility determination”, the “Sol7” value was found to be 9.2 mg/mL. In data set [4], the inhibitory constant (Ki) was 0.00095 µM.
In data set [2], `CC(C)CC(=O)N[C@@H](C)C(=O)N1CCC[C@H]1C(=O)N[C@@H](CCC(=O)O)C(=O)N[C@@H](CCCCNC(=O)CCCCCNC(=O)CC[C@H](NC(=O)CCCCCCCCCCCCCCCCC(=O)O)C(=O)O)C(=O)N1CCC[C@H]1C(=O)N[C@@H](CCC(=O)O)C(=O)N[C@@H](CCC(=O)O)C(=O)N[C@@H](CC(=O)O)C(=O)N[C@@H](C)C(=O)N[C@@H](CO)C(=O)N1CCC[C@H]1C(=O)N[C@@H](CCC(=O)O)C(=O)N[C@@H](CCC(=O)O)C(=O)N[C@@H](CC(C)C)C(=O)N[C@@H](CCC(N)=O)C(=O)N[C@@H](CCCNC(=N)N)C(=O)N[C@@H](Cc1ccc(O)cc1)C(=O)N[C@@H](Cc1ccc(O)cc1)C(=O)N[C@H](C(=O)N[C@@H](CO)C(=O)N[C@@H](CC(C)C)C(=O)N[C@@H](CCCNC(=N)N)C(=O)N[C@@H](Cc1c[nH]cn1)C(=O)N[C@@H](Cc1ccc(O)cc1)C(=O)N[C@@H](Cc1ccc(O)cc1)C(=O)N[C@@H](CC(N)=O)C(=O)N[C@@H](Cc1c[nH]c2ccccc12)C(=O)N[C@@H](CC(C)C)C(=O)N[C@H](C(=O)N[C@@H](CCCNC(=N)N)C(=O)N[C@@H](CCC(N)=O)C(=O)N[C@@H](CCCNC(=N)N)C(=O)N[C@@H](Cc1ccc(O)cc1)C(N)=O)[C@@H](C)O)C(C)C` [Compound 79, N{alpha-4}-(3-methylbutanoyl)-N{epsilon-7}-(6-[(4S)-4-carboxy-4-(17-carboxyheptadecanamido)butanamido]hexanoyl)-[4A,7K,9E,18Q,22V,28Y,30W,31L]-hPYY(4-36)] displayed a 50% effective concentration (EC50) of more than 5 µM. Moreover, in the data set “Solubility determination”, the “Sol6” value was 10.0 mg/mL and the “Sol7” value amounted to 10.0 mg/mL. The Ki in data set [4] was determined as 0.00154 µM.
Consider `CC[C@H](C)[C@H](NC(=O)[C@H](CCC(=O)O)NC(=O)[C@H](CCC(=O)O)NC(=O)[C@@H]1CCCN1C(=O)[C@H](CO)NC(=O)[C@H](C)NC(=O)[C@H](CC(=O)O)NC(=O)[C@H](CCC(=O)O)NC(=O)[C@H](CCC(=O)O)NC(=O)[C@H](C)NC(=O)[C@H](CCCCNC(=O)CCCCCNC(=O)CC[C@H](NC(=O)CCCCCCCCCCCCCCCCC(=O)O)C(=O)O)NC(=O)[C@H](CCC(=O)O)NC(=O)[C@@H]1CCCN1C(=O)[C@H](C)NC(=O)CC(C)C)C(=O)N[C@@H](CCC(N)=O)C(=O)N[C@@H](CCCNC(=N)N)C(=O)N[C@@H](Cc1ccc(O)cc1)C(=O)N[C@@H](Cc1ccc(O)cc1)C(=O)N[C@H](C(=O)N[C@@H](CO)C(=O)N[C@@H](CC(C)C)C(=O)N[C@@H](CCCNC(=N)N)C(=O)N[C@@H](Cc1c[nH]cn1)C(=O)N[C@@H](Cc1ccc(O)cc1)C(=O)N[C@@H](Cc1ccc(O)cc1)C(=O)N[C@@H](CC(N)=O)C(=O)N[C@@H](Cc1c[nH]c2ccccc12)C(=O)N[C@@H](CC(C)C)C(=O)N[C@H](C(=O)N[C@@H](CCCNC(=N)N)C(=O)N[C@@H](CCC(N)=O)C(=O)N[C@@H](CCCNC(=N)N)C(=O)N[C@@H](Cc1ccc(O)cc1)C(N)=O)[C@@H](C)O)C(C)C` [Compound 183, N{alpha-4}-(3-methylbutanoyl)-N{epsilon-7}-(6-[(4S)-4-carboxy-4-(17-carboxyheptadecanamido)butanamido]hexanoyl)-[4A,7K,8A,9E,17I,18Q,22V,28Y,30W,31L]-hPYY(4-36)], for which the EC50 in data set [2] is more than 5 µM. In “Solubility determination”, the “Sol6” value came to 8.4 mg/mL and the “Sol7” value came to 8.7 mg/mL. Also, in data set [4], the Ki was found to be 0.0188 µM.
For `CC(C)CC(=O)N[C@@H](C)C(=O)N1CCC[C@H]1C(=O)N[C@@H](CCC(=O)O)C(=O)N[C@@H](CCCCNC(=O)CCCCCNC(=O)CC[C@H](NC(=O)CCCCCCCCCCCCCCCCC(=O)O)C(=O)O)C(=O)N1CCC[C@H]1C(=O)N[C@@H](CCC(=O)O)C(=O)N[C@@H](C)C(=O)N[C@@H](CCC(=O)O)C(=O)N[C@@H](C)C(=O)N[C@@H](CO)C(=O)N1CCC[C@H]1C(=O)N[C@@H](CCC(=O)O)C(=O)N[C@@H](CCC(=O)O)C(=O)N[C@@H](CC(C)C)C(=O)N[C@@H](CCC(N)=O)C(=O)N[C@@H](CCCNC(=N)N)C(=O)N[C@@H](Cc1ccc(O)cc1)C(=O)N[C@@H](Cc1ccc(O)cc1)C(=O)N[C@H](C(=O)N[C@@H](CO)C(=O)N[C@@H](CC(C)C)C(=O)N[C@@H](CCCNC(=N)N)C(=O)N[C@@H](Cc1c[nH]cn1)C(=O)N[C@@H](Cc1ccc(O)cc1)C(=O)N[C@@H](Cc1ccc(O)cc1)C(=O)N[C@@H](CC(N)=O)C(=O)N[C@@H](Cc1c[nH]c2ccccc12)C(=O)N[C@@H](CC(C)C)C(=O)N[C@H](C(=O)N[C@@H](CCCNC(=N)N)C(=O)N[C@@H](CCC(N)=O)C(=O)N[C@@H](CCCNC(=N)N)C(=O)N[C@@H](Cc1ccc(O)cc1)C(N)=O)[C@@H](C)O)C(C)C` [Compound 122, N{alpha-4}-(3-methylbutanoyl)-N{epsilon-7}-(6-[(4S)-4-carboxy-4-(17-carboxyheptadecanamido)butanamido]hexanoyl)-[4A,7K,9E,10A,11E,18Q,22V,28Y,30W,31L]-hPYY(4-36)], the half-maximal effective concentration (EC50) in data set [1], in data set [2] and in data set [3] was more than 5 µM in each case. The “Sol6” value in “Solubility determination” is 9.8 mg/mL. Besides, the “Sol7” value in the data set “Solubility determination” was determined as 9.9 mg/mL.
